Laboratory results taken from patent publication US20240374567A1, “Combination Treatments for Cancer Patients and Methods for Identifying Same” (Scandion Oncology A/S, priority 2021, published 2024).

System: UGT1A1
Test: Clinical study of SCO-101 with FOLFIRI: serum bilirubin and bilirubin index after SCO-101
Type: in vivo, human
Experimental: The term “bilirubin index” as used herein or “bilirubin index score” which are used interchangeably, refer to a patient's rate of bilirubin normalization subsequent to administration of an UGT1A1 inhibitor to the patient. Herein, the bilirubin index is determined subsequent to administration of an UGT1A1 inhibitor to the patient for a number of consecutive days, such as 1, 2, 3, 4, 5, or 6, preferably 6 days. Based on 6 consecutive days of administration with an UGT1A1 inhibitor, the bilirubin index is determined as the bilirubin serum or plasma concentration (unconjugated or total bilirubin) on day 12 divided with the bilirubin serum or plasma concentration on day 7 and thus is an indicator of how much the patients' UGT1A1 activity has normalized following cessation of SCO-101 treatment and can be determined using bilirubin as a surrogate marker.
Bilirubin: Blood sampling for analysis of bilirubin (total, unconjugated and conjugated) were withdrawn at Screening (up to 4 weeks prior start of treatment), day 5, day 7 and day 12 in the first treatment cycle.
Likely, the increase in unconjugated bilirubin is mediated through inhibition of the enzyme UDP-glucuronosyltransferase 1 family, polypeptide A1 (UGT1A1). UGT1A1 is an enzyme responsible for conjugation of poorly soluble endo- and xenobiotics making them more soluble and possible to excrete. UGT1A1 is the primary enzyme responsible for conjugation of bilirubin and metabolism of Irinotecan's active metabolite SN-38. The bilirubin index score is the bilirubin serum concentration (unconjugated or total bilirubin) on day 12 divided with the bilirubin serum concentration on day 7 and thus is an indicator of how much the patients' UGT1A1 activity has normalized following cessation of SCO-101 treatment, and can be determined using bilirubin as a surrogate marker. In FIG. 2, an overview of the bilirubin index for all patients is included. The mean bilirubin index score for the six RAS wild type patients is approximately 0.15 (lowest 0.04, highest 0.28) whereas the mean score for the six RAS mutated patients is 0.59 (lowest 0.25, highest 0.76). Thus, there is a strong indication that the bilirubin index can predict a patient's tolerability to treatment.

O=C(Nc1cc(C(F)(F)F)cc(C(F)(F)F)c1)Nc1ccc(Br)cc1-c1nnn[nH]1 [SCO-101]
reversibility of bilirubin increase / UGT1A1 inhibition (after discontinuation of SCO-101 treatment): completely reversible | bilirubin index (bilirubin serum concentration on day 12 divided with day 7) (patients with RAS mutation, cohort 1 (150 mg SCO-101), cycle 1): above 0.4 | effect on unconjugated bilirubin serum concentration (patients, SCO-101 days 1 to 6): specific and dose dependent increase | highest bilirubin index score (six RAS mutated patients): 0.76 | lowest bilirubin index score (six RAS mutated patients): 0.25 | mean bilirubin index score (six RAS mutated patients): 0.59 | highest bilirubin index score (six RAS wild type patients): 0.28 | lowest bilirubin index score (six RAS wild type patients): 0.04 | mean bilirubin index score (six RAS wild type patients): approximately 0.15
